In ChEMBL document CHEMBL1152004, “Chloramphenicol: High dilution FT-IR evidence for an intramolecular hydrogen bond” (Bioorg Med Chem Lett, 1991):

Target: Ribosome
Test: Inhibition of protein biosynthesis at the level of the peptidyl transferase center of the 50 s ribosomal subunit
Format: subcellular

**Q.** For `O=C(N[C@H](CO)[C@H](O)c1ccc([N+](=O)[O-])cc1)C(Cl)Cl` [CHLORAMPHENICOL], which Kd is on record?
**A.** Its Kd is roughly 1 µM.
